Assay results reported in US20250152564A1, “PROPYLENE KETONE-CONTAINING BIOINHIBITOR, PREPARATION METHOD THEREFOR, AND USE THEREOF” (SHANGHAI HANSOH BIOMEDICAL CO., LTD., priority 2022, published 2025).

Assays:
FGFR1 = FGFR1 (Homo sapiens (Human), UniProt P11362); assay: TR-FRET kinase inhibition assay, FGFR1; format: biochemical; settings: ATP Km concentration (30 μM)
Procedure, shortened: (§1)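 Kinase-domain fragments in 50 mM HEPES pH 7.5 with 10 mM MgCl2, ATP at Km plus peptide substrate; 60 min reaction at room temperature, then EDTA/Eu-anti-phosphotyrosine (PT66) detection for 60 min (30 min for V564F). 11-point 3-fold dilutions from 1000 nM; IC50 from four-parameter fit of 665/620 nm ratio inhibition.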

FGFR2 = FGFR2 (Homo sapiens (Human), UniProt P21802); assay: TR-FRET kinase inhibition assay, FGFR2; format: biochemical; settings: ATP Km concentration (30 μM)
Procedure, shortened: as §1

FGFR2 V564F = FGFR2 V564F (Homo sapiens (Human), UniProt P21802, V564F); assay: TR-FRET kinase inhibition assay, FGFR2 V564F; format: biochemical; settings: ATP Km concentration (20 μM)
Procedure, shortened: as §1

NCI-H716 cells = assay: CellTiter-Glo cell proliferation inhibition, NCI-H716; format: cell-based; settings: Homo sapiens, 72 h, read-out: NCI-H716 cell proliferation inhibition rate IC50
Method: To evaluate inhibitory effects of the compounds on the proliferation of NCI-H716, SNU-16 and BaF3-FGFR2-BICC1 V564F cells by cell proliferation inhibition experiments.
CellTiter-Glo method was used to detect inhibitory effects of the compounds on the proliferation of NCI-H716, SNU-16 and BaF3 FGFR2-BICC1 V564F cells. The highest detection concentration of the compounds was 1000 nM, which was diluted in 3 folds, with a total of 9 concentrations (1000 nM to 0.15 nM). After the cells were plated at an appropriate density, compounds were added the next day and incubated for 72 h before detection using the […] detection kit.
1) Inhibition rate (%): Inhibition rate %=[(mean value in positive control well−value in sample well)/(mean value in positive control well−mean value in negative control well)]×100, wherein the positive control well was a reaction well without a compound […], and the negative control well was a reaction wells without an enzyme.
2) Curve fitting: Log(inhibitor) vs. response—Variable slope (four parameters) in GraphPad Prism 6 was used for fitting equation analysis of the compound concentration and the corresponding inhibition rate, and the curve was fitted to obtain the IC50 values of the compounds.

[1] = test system: BaF3 FGFR2-BICC1 V564F cells; assay: CellTiter-Glo cell proliferation inhibition, BaF3 FGFR2-BICC1 V564F; format: cell-based; settings: Mus musculus, 72 h, read-out: BaF3 FGFR2-BICC1 V564F inhibitory activity IC50
Procedure, shortened: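 Cells plated, compound added next day as 9-point 3-fold series from 1000 nM to 0.15 nM, incubated 72 h. Viability by CellTiter-Glo luminescence; IC50 from four-parameter variable-slope fit of percent inhibition.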

[2] = Pharmacokinetic experiment in SD rats after oral administration; format: in vivo; settings: 5 mg/kg, plasma; for AUC(0-t) / AUC(0-inf) / half-life / MRT / Cmax: male, Sprague-Dawley (SD), rat, po; for AUC(0-t): read-out: Area under the curve AUC0-t; for AUC(0-inf): read-out: Area under the curve AUC0-∞; for half-life: read-out: Half-life t1/2 (converted); for MRT: read-out: Mean residence time MRT; for Cmax: read-out: Plasma concentration Cmax; for Time to peak tmax: p.o.

Sequence of FGFR2 (P21802 481-770): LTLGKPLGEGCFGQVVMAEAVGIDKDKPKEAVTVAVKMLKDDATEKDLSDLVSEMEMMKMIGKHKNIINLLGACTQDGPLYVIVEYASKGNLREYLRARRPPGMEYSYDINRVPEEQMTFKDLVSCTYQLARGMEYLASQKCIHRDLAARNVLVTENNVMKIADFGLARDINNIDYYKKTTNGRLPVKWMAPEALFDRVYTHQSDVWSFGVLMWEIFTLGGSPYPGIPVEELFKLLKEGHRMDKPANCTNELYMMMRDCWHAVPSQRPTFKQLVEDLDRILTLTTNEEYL
Sequence of FGFR2 V564F (P21802 481-770 V564F): as the sequence (P21802 481-770) above, with V84F counted along it
Sequence of FGFR1 (P11362 478-767): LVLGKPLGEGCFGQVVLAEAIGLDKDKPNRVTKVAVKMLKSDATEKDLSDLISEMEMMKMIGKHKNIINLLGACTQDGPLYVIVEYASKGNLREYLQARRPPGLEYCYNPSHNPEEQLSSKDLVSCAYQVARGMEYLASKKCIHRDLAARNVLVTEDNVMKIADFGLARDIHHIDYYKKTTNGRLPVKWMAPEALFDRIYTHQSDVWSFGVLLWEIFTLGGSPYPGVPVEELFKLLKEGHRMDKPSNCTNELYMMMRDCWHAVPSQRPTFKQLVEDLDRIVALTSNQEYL

Compound	IC50 (FGFR1)	IC50 (FGFR2)	IC50 (FGFR2 V564F)	IC50 (NCI-H716 cells)	IC50 [1]	AUC(0-t) [2]	AUC(0-inf) [2]	half-life [2]	MRT [2]	Cmax [2]	Time to peak tmax [2]
C=CC(=O)N1CC[C@H](n2nc(C#Cc3ccc4cn(C5CC5)nc4c3)c3c(N)ncc(C(C)=O)c32)C1 [Example 87, (S)-1-(3-(7-acetyl-4-amino-3-((2-cyclopropyl-2H-indazol-6-yl)ethynyl)-1H-pyrazolo[4,3-c]pyridin-1-yl)pyrrolidine-1-methyl)prop-2-en-1-one]	1.6 nM	0.5 nM	0.6 nM	1.31 nM	0.3 nM	2240 ng·h/mL	2240 ng·h/mL	0.5 h	2.38 h	534 ng/mL	2 h
C=CC(=O)N1CC[C@H](n2nc(C#Cc3ccc4c(c3)ncn4C3CC3)c3c(N)ncc(C(=O)C4CC4)c32)C1 [Example 38, (S)-1-(3-(4-amino-7-(cyclopropanecarbonyl)-3-((1-cyclopropyl-1H-benzo[d]imidazol-5-yl)ethynyl)-1H-pyrazolo[4,3-c]pyridin-1-yl)pyrrolidin-1-yl)prop-2-en-1-one]	2.8 nM	1.6 nM	1 nM	0.91 nM	1.9 nM	2230 ng·h/mL	2270 ng·h/mL	1.1 h	2.99 h	604 ng/mL	2 h
C=CC(=O)N1CC[C@H](n2nc(C#Cc3cc4ncn(C)c4cc3Cl)c3c(N)ncc(C(=O)C4CC4)c32)C1 [Example 68, (S)-1-(3-(4-amino-3-((6-chloro-1-methyl-1H-benzo[d]imidazol-5-yl)ethynyl)-7-(cyclopropanecarbonyl)-1H-pyrazolo[4,3-c]pyridin-1-yl)pyrrolidin-1-yl)prop-2-en-1-one]	2.4 nM	1.4 nM	0.3 nM	1.42 nM	0.5 nM						
C=CC(=O)N1CC[C@H](n2nc(C#Cc3ccc4c(c3)ncn4CC)c3c(N)ncc(C(=O)C4CC4)c32)C1 [Example 58, (S)-1-(3-(4-amino-7-(cyclopropanecarbonyl)-3-((1-ethyl-1H-benzo[d]imidazol-5-yl)ethynyl)-1H-pyrazolo[4,3-c]pyridin-1-yl)pyrrolidin-1-yl)prop-2-en-1-one]	3 nM	1.2 nM	0.5 nM	1.94 nM	0.4 nM						
C=CC(=O)N1CC[C@H](n2nc(C#Cc3cc4ncn(CC)c4cc3F)c3c(N)ncc(C(=O)C4CC4)c32)C1 [Example 61, (S)-1-(3-(4-amino-7-(cyclopropanecarbonyl)-3-((1-ethyl-6-fluoro-1H-benzo[d]imidazol-5-yl)ethynyl)-1H-pyrazolo[4,3-c]pyridin-1-yl)pyrrolidin-1-yl)prop-2-en-1-one]	2.2 nM	0.8 nM	0.4 nM	1.77 nM	1 nM						
C=CC(=O)N1CC[C@H](n2nc(C#Cc3ccc4c(c3)ncn4C)c3c(N)ncc(C(=O)C4CC4)c32)C1 [Example 65, (S)-1-(3-(4-amino-7-(cyclopropanecarbonyl)-3-((1-methyl-1H-benzo[d]imidazol-5-yl)ethynyl)-1H-pyrazolo[4,3-c]pyridin-1-yl)pyrrolidin-1-yl)prop-2-en-1-one]	2.8 nM	0.7 nM	0.5 nM	1.5 nM	1.4 nM						
C=CC(=O)N1CC[C@H](n2nc(C#Cc3cc4ncn(C5CC5)c4cc3F)c3c(N)ncc(C(=O)C4CC4)c32)C1 [Example 49, (S)-1-(3-(4-amino-7-(cyclopropanecarbonyl)-3-((1-cyclopropyl-6-fluoro-1H-benzo[d]imidazol-5-yl)ethynyl)-1H-pyrazolo[4,3-c]pyridin-1-yl)pyrrolidin-1-yl)prop-2-en-1-one]	3.9 nM	1.3 nM	1 nM	1.92 nM	0.4 nM						
